Measurements: patent publication US20070142270A1, “Aryl Sulfonic Pyridoxines as Antiplatelet Agents” (priority 2004, published 2007)
Like-named read-outs stand apart in the source and are kept apart here.

Legend:
human trypsin = experiment: Inhibition of serine protease activity, trypsin, chromogenic substrate Pefachrome Try; assay type: biochemical; conditions: 2 nM human trypsin, 300 μM substrate, pH 7.5
Protocol: (§1) The enzymes factor Xa (fXa), thrombin (factor IIa or fIIa), and trypsin were purchased from Haematologic Technologies Inc. (Essex Junction, Vt.). The substrates Pefachromes Xa, Th, and Try were purchased from Centerchem Inc. (Stamford, Conn.). Varying concentrations of the sulfonamide compounds were incubated for 30 min at room temperature with purified activated human enzyme in the appropriate buffer. Various concentrations of the corresponding synthetic substrate were added, and activity was measured at 37° C. by monitoring absorbance at 405 nm for 15 min with a Flurostar Optima plate reader. […] For controls, the appropriate percentage of solvent was used instead of test compound. The specific activity (ΔA405/min/nM protein), and the percent activity was calculated for each data point. The IC50 was calculated by linear regression of log[test compound] vs. % activity. The enzyme activity of the sulfonamide compound was determined using the Enzyme Kinetics Module of Sigmaplot 8.0 (SPSS Inc.)
The final concentration of human trypsin was 2 nM in a Tris/NaCl buffer (pH 7.5) containing 0.25% (w/v) bovine serum albumin and 20 μM CaCl2. The substrate used was Pefachrome Try.

[1] = molecular target: T1, human thrombin (factor IIa, fIIa) (Homo sapiens, UniProt P00734); experiment: Inhibition of serine protease activity, thrombin, chromogenic substrate Pefachrome Th; assay type: biochemical; conditions: 2 nM human thrombin, 300 μM substrate, pH 8.3
T1 construct: purchased Haematologic Technologies Inc. (Essex Junction, Vt.)
Protocol: as §1
The final concentration of human thrombin was 2 nM in a Tris/NaCl buffer (pH 8.3) containing 0.125% (w/v) bovine serum albumin. The substrate used was Pefachrome Th.

human Factor Xa (fXa) = molecular target: T2, human Factor Xa (fXa) (Homo sapiens, UniProt P00742); experiment: Inhibition of serine protease activity, factor Xa, chromogenic substrate Pefachrome Xa; assay type: biochemical; conditions: 2 nM human Factor Xa, 300 μM substrate, pH 7.5
T2 construct: purchased Haematologic Technologies Inc. (Essex Junction, Vt.)
T2 sequence (P00742 235-488 limits assumed): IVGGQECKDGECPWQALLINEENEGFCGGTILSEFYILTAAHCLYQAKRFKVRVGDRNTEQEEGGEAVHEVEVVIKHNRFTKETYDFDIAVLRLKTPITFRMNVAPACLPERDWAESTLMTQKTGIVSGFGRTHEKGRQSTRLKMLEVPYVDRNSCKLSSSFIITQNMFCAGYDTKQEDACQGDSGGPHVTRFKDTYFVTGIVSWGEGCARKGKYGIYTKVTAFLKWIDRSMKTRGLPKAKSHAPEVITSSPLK
T2 sequence (P00742 41-179 partner limits assumed): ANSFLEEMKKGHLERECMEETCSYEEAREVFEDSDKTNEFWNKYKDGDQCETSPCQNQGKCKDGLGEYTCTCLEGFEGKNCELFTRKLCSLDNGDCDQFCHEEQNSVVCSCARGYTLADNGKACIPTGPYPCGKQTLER
Protocol: as §1
The final concentration of human Factor Xa was 2 nM in a Tris/NaCl buffer (pH 7.5) containing 0.25% (w/v) polyethylene glycol (MW 8000). The substrate employed was Pefachrome Xa.

[2] = system: platelets (platelet rich plasma); experiment: Inhibition of platelet aggregation in platelet rich plasma (Chrono-log aggregometer); assay type: cell-based; conditions: human PRP; for inhibition at 100 µM: compound concentration 100 μM; for inhibition at 250 µM: compound concentration 250 μM
Protocol: Platelet poor plasma (PPP) was obtained by centrifuging the remainder of the sample after the platelets were removed at 800×g for about 10 minutes. The PRP was adjusted to a count of 280×10^9/L using a mixture of PRP and PPP. The platelets (200 μL) were incubated with the test compounds (25 μL) adjusted to various concentrations ([…]) for about 30 minutes at room temperature (approximate final platelet count in the incubation mixture of 250×10^9/L). The samples were incubated for about 3 minutes at about 37° C., and then transferred to the mixing wells of a Chrono-log 4 channel aggregometer (Chrono-log Corp., Havertown, Pa.). After baselines were established, the agonist (25 μL of 40 μM ADP (Sigma, St. Louis, Mo.) or 25 μL of 50 μg/mL and 10 μg/mL collagen (Helena Laboratories, Beaumont, Tex.) or 25 μL of 120 μM thrombin receptor activating peptide (TRAP) (Sigma)) was then added. Aggregation was monitored for 5 minutes at 37° C. with stirring (1000 rpm). The amplitude and slope of each tracing were calculated to determine the amount of aggregation. Control samples were performed using only solvent. The % reduction in aggregation was calculated for each sample compared to the proper solvent control.

[3] = system: platelets (platelet rich plasma); experiment: as above; assay type: cell-based; conditions: compound concentration 500 μM, human PRP
[4] = agonist ADP 4 μM, read-out: % Reduction in Aggregation, ADP (4 μM)
[5] = agonist TRAP 12 μM, read-out: % Reduction in Aggregation, TRAP (12 μM)
[6] = agonist collagen 1 μg/mL, read-out: % Reduction in Aggregation, Collagen (1 μg/mL)
[7] = agonist collagen 5 μg/mL, read-out: % Reduction in Aggregation, Collagen (5 μg/mL)

| IC50 (human trypsin) [µM] | IC50 [1] [mM] | IC50 (human Factor Xa (fXa)) [µM] | Compound | inhibition at 250 µM [2, 4] [%] | inhibition at 250 µM [2, 5] [%] | inhibition at 250 µM [2, 6] [%] | inhibition at 250 µM [2, 7] [%] | other results |
| --- | --- | --- | --- | --- | --- | --- | --- | --- |
| > 1000 | > 1 | 329 | Cc1ncc(CNc2ccc(-c3ccccc3S(=O)(=O)NC(C)(C)C)cc2)c(CO)c1O [Compound 2, 4′-[(5-Hydroxy-4-hydroxymethyl-6-methyl-pyridin-3-ylmethyl) -amino]-biphenyl-2-sulfonic acid tert-butylamide] |  |  |  |  |  |
| 4 | 0.171 | 18 | Cc1ncc(CO)c(CNc2ccc(-c3ccccc3S(N)(=O)=O)cc2F)c1OCc1ccc(C(=N)N)cc1 [Compound 30, 4-{4-[(3-Fluoro-2′-sulfamoyl-biphenyl-4-ylamino)-methyl]-5-hydroxymethyl-2-methyl-pyridin-3-yloxymethyl}-benzamidine] |  |  |  |  | inhibition at 100 µM [2, 4]: 23%; inhibition at 100 µM [2, 5]: 57%; inhibition at 100 µM [2, 6]: 57%; inhibition at 100 µM [2, 7]: 19% |
| 24 | 0.097 | 5 | Cc1ncc(CNC(=O)c2ccc(-c3ccccc3S(N)(=O)=O)cc2)c(CO)c1OCc1cccc(C(=N)N)c1 [Compound 23] |  |  |  |  |  |
| 18 | 0.3 | 105 | Cc1ncc(CNc2ccc(C(=N)N)cc2)c(CO)c1O [Compound 33, reference compound] |  |  |  |  | inhibition at 500 µM ([2]; agonist collagen 1 μg/mL, compound concentration 500 μM, read-out: % Reduction in Aggregation, Collagen (1 μg/mL)): 5%; inhibition at 500 µM [3, 4]: 4%; inhibition at 500 µM [3, 5]: 1%; inhibition at 500 µM [3, 7]: 15% |
| > 1000 | > 1 | 326 | Cc1ncc(CNc2cccc(-c3ccccc3S(N)(=O)=O)c2)c(CO)c1O [Compound 21, 3′-[(5-Hydroxy-4-hydroxymethyl-6-methyl-pyridin-3-ylmethyl)-amino]-biphenyl-2-sulfonic acid amide] | 14 | 0 | 4 | 0 |  |
| 11 | > 1 | 11 | Cc1ncc(CNc2ccc(-c3ccccc3S(N)(=O)=O)cn2)c(CO)c1OCc1cccc(C(=N)N)c1 [Compound 16] | 3 | 1.3 | 14 | 0 |  |
| 4 | > 1 | 29 | Cc1ncc(CNc2ccc(-c3ccc(C(=N)N)cc3)cc2)c(CO)c1O [Compound 34, reference compound] | 63 | 93 | 41 | 1 |  |
| > 1000 | > 1 | > 1000 | Cc1ncc(CNc2ccc(-c3ccccc3S(N)(=O)=O)cc2)c(CO)c1O [Compound 3, 4′-[(5-Hydroxy-4-hydroxymethyl-6-methyl-pyridin-3-ylmethyl)-amino]-biphenyl-2-sulfonic acid amide] | 0 | 6 | 0 | 5 |  |
| > 1000 | > 1 | 362 | Cc1ncc(CNC(=O)c2ccc(-c3ccccc3S(=O)(=O)NC(C)(C)C)cc2)c(CO)c1O [Compound 5, 2′-tert-Butylsulfamoyl-biphenyl-4-carboxylic acid (5-hydroxy-4-hydroxymethyl-6-methyl-pyridin-3-ylmethyl)-amide] |  |  |  |  |  |
| 12 | 0.862 | 15 | Cc1ncc(CNc2ccc(-c3ccccc3S(N)(=O)=O)cc2)c(CO)c1OCc1cccc(C(=N)N)c1 [Compound 14] | 10 | 9 | 15 | 5 |  |
| > 1000 | > 1 |  | Cc1ncc(CO)c(CNc2cccc(-c3ccccc3S(N)(=O)=O)c2)c1O [Compound 32, 3′-[(3-Hydroxy-5-hydroxymethyl-2-methyl-pyridin-4-ylmethyl)-amino]-biphenyl-2-sulfoniamide] |  |  |  |  |  |
| > 1000 | > 1 | 306 | Cc1ncc(CNC(=O)c2ccc(-c3ccccc3S(N)(=O)=O)cc2)c(CO)c1O [Compound 6, 2′-Sulfamoyl-biphenyl-4-carboxylic acid (5-hydroxy-4-hydroxymethyl-6-methyl-pyridin-3-ylmethyl)-amide] | 0 | 1 | 5 | 0 |  |
| 3 | 0.476 | 17 | Cc1ncc(CO)c(CNc2cccc(-c3ccccc3S(N)(=O)=O)c2)c1OCc1ccc(C(=N)N)cc1 [Compound 28, 4-{5-Hydroxymethyl-2-methyl-4-[(2′-sulfamoyl-biphenyl-3-ylamino)-methyl]-pyridin-3-yloxymethyl}-benzamidine] | 26 | 11 | 10 | 15 |  |
| 15 | > 1 | 4 | Cc1ncc(CO)c(CNc2ccc(-c3ccccc3S(N)(=O)=O)cc2)c1OCc1cccc(C(=N)N)c1 [Compound 25, 3-{5-Hydroxymethyl-2-methyl-4-[(2′-sulfamoyl-biphenyl-4-ylamino)-methyl]-pyridin-3-yloxymethyl}-benzamidine] |  |  |  |  |  |
| > 1000 | > 1 | > 1000 | Cc1ncc(CO)c(CNc2ccc(-c3ccccc3S(N)(=O)=O)cc2)c1O [Compound 8] |  |  |  |  |  |
| > 1000 | > 1 | 197 | Cc1ncc(CO)c(CNc2ccc(-c3ccccc3S(=O)(=O)NC(C)(C)C)cc2)c1O [Compound 7, 4′-[(3-Hydroxy-5-hydroxymethyl-2-methyl-pyridin-4-ylmethyl)-amino]-biphenyl-2-sulfonic acid tert-butylamide] |  |  |  |  |  |

| Compound | IC50 (human trypsin) [µM] | IC50 [1] [mM] | IC50 (human Factor Xa (fXa)) [µM] | inhibition at 250 µM [2, 4] [%] | inhibition at 250 µM [2, 5] [%] | inhibition at 250 µM [2, 6] [%] | inhibition at 250 µM [2, 7] [%] | other results |
| --- | --- | --- | --- | --- | --- | --- | --- | --- |
| Cc1ncc(CNc2ccc(-c3ccccc3S(N)(=O)=O)cn2)c(CO)c1O [Compound 31, 2-{6-[(5-Hydroxy-4-hydroxymethyl-6-methyl-pyridin-3-ylmethyl)-amino]-pyridin-3-yl}-benzenesulfonamide] | > 1000 | > 1 | > 1000 |  |  |  |  |  |
